Results from US20240228463A1, “SODIUM CHANNEL INHIBITORS AND METHODS OF DESIGNING SAME” (Genentech, Inc., priority 2021, published 2024).
pIC50: −log10 of the molar value. Like-named read-outs stand apart in the source and are kept apart here.

Target: T1, hNaV1.7 (Homo sapiens, UniProt Q15858)
T1 construct: expressed in transfected cells
Experiment: Patch voltage clamp electrophysiology (EP), Syncropatch 384PE, Nav1.7 in CHO cells;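 further: Nav1.7 stably expressed from cDNA in CHO cells, holding potential of −50 mV kept for the entire experiment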
Format: cell-based
Conditions: holding potential −50 mV, inhibition based on 7.5 min compound incubation

T1 sequence (Q15858 1-1977 isoform Q15858-3): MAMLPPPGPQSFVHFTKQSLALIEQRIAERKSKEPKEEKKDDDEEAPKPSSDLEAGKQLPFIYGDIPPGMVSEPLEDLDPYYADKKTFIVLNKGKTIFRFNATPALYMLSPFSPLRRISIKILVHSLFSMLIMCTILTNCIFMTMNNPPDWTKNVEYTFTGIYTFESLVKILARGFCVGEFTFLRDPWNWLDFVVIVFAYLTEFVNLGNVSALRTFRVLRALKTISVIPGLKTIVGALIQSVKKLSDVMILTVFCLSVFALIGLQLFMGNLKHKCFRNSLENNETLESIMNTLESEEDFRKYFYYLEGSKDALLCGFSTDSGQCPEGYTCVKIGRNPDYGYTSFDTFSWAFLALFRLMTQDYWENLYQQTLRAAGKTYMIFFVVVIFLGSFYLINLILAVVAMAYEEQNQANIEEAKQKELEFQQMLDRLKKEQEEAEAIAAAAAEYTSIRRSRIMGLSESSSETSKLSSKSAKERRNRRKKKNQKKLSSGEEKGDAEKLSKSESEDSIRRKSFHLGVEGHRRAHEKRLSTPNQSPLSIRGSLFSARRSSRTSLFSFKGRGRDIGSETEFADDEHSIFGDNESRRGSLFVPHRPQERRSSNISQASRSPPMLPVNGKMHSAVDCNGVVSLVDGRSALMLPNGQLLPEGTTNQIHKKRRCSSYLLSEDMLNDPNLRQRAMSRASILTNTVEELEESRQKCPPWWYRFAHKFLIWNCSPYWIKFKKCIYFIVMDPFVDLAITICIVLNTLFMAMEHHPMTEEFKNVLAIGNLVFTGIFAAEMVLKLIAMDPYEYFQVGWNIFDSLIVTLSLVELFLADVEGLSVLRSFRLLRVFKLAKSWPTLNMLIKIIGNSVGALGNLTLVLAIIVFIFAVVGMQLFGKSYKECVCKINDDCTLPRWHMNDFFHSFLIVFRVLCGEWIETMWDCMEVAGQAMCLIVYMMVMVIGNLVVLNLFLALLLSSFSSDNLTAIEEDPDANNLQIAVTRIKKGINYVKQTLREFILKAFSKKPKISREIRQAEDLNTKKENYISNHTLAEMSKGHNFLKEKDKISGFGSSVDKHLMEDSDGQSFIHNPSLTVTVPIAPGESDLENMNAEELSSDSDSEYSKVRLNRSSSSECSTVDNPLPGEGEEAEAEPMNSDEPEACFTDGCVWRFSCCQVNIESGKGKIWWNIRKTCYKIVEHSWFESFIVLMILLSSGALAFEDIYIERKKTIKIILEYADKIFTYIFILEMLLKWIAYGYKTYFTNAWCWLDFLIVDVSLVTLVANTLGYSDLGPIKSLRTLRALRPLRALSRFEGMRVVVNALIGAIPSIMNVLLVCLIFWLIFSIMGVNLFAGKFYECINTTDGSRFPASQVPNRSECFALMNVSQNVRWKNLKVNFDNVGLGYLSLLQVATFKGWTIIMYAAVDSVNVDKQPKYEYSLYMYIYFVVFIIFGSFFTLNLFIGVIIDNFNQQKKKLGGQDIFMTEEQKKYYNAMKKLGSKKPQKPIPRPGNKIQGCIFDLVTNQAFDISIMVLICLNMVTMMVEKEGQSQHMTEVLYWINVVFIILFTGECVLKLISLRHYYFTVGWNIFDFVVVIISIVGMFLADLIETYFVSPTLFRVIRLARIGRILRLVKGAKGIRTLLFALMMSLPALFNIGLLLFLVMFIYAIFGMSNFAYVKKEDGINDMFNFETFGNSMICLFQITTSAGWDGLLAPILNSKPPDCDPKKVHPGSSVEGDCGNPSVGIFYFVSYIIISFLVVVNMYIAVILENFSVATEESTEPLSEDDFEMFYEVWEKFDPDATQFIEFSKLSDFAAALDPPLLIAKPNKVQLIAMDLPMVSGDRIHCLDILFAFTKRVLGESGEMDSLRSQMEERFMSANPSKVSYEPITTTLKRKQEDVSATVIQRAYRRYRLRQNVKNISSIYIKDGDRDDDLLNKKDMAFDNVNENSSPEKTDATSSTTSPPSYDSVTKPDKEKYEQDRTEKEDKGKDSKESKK

For O=C(NS(=O)(=O)N1CCC(OC2CCCNC2)CC1)c1cc(Cl)c(OCC2CCCC2)cc1F (racemic) [Example 51, 5-chloro-4-(cyclopentylmethoxy)-2-fluoro-N-((4-(piperidin-3-yloxy)piperidin-1-yl)sulfonyl)benzamide 2,2,2-trifluoroacetate], the pIC50 (read-out: hNaV1.7 EP_SP) was 7.17.
O=C(NS(=O)(=O)[C@@H]1C[C@H]1c1ccccc1)c1cc(Cl)c(OCC2CCCC2)cc1F (relative stereo) [Example 284, 5-chloro-4-(cyclopentylmethoxy)-2-fluoro-N-((trans-2-phenylcyclopropyl)sulfonyl)benzamide] was tested, and the pIC50 (read-out: hNaV1.7 EP_SP) was 6.92.
C[C@H]1Cc2ccccc2N(S(=O)(=O)NC(=O)c2cc(Cl)c(OCC3CCCC3)cc2F)C1 (single isomer, unassigned) [Example 16] showed a pIC50 (read-out: hNaV1.7 EP_SP) of 6.62.
Work on C[C@@H]1Cc2ccccc2N(S(=O)(=O)NC(=O)c2cc(Cl)c(OCC3CCCC3)cc2F)C1 (single isomer, unassigned) [Example 17] yielded a pIC50 (read-out: hNaV1.7 EP_SP) of 7.00.
In the case of C[C@@H]1CCc2ccccc2N1S(=O)(=O)NC(=O)c1cc(Cl)c(OCC2CCCC2)cc1F (single isomer, unassigned) [Example 18], the pIC50 (read-out: hNaV1.7 EP_SP) was 7.62.
With NC[C@@H]1CN(S(=O)(=O)NC(=O)c2cc(Cl)c(OCC3CCCC3)cc2F)CCO1 (single isomer, unassigned) [Example 24, 2,2,2-trifluoroacetate] the pIC50 (read-out: hNaV1.7 EP_SP) was 7.00.
In the case of NC[C@@H]1CN(S(=O)(=O)NC(=O)c2cc(C3CC3)c(OCC3CCCC3)cc2F)CCO1 (single isomer, unassigned) [Example 25, 2,2,2-trifluoroacetate], the pIC50 (read-out: hNaV1.7 EP_SP) was 7.82.
Work on CNC[C@@H]1CN(S(=O)(=O)NC(=O)c2cc(Cl)c(OCC3CCCC3)cc2F)CCO1 (single isomer, unassigned) [Example 26] yielded a pIC50 (read-out: hNaV1.7 EP_SP) of 6.72.
NC[C@H]1CCCN(S(=O)(=O)NC(=O)c2cc(Cl)c(OCC3CCCC3)cc2F)C1 (single isomer, unassigned) [Example 27, 2,2,2-trifluoroacetate] gave a pIC50 (read-out: hNaV1.7 EP_SP) of 7.05.
With CN(C)C[C@@H]1CN(S(=O)(=O)NC(=O)c2cc(Cl)c(OCC3CCCC3)cc2F)CCO1 (single isomer, unassigned) [Example 28] the pIC50 (read-out: hNaV1.7 EP_SP) was 6.64.
For O=C(NS(=O)(=O)N1CCC(O[C@@H]2CCNC2)CC1)c1cc(C2CC2)c(OCC2CCCC2)cc1F (single isomer, unassigned) [Example 29, 2,2,2-trifluoroacetate], the pIC50 (read-out: hNaV1.7 EP_SP) was 7.57.
O=C(NS(=O)(=O)N1CC(O[C@@H]2CCNC2)C1)c1cc(Cl)c(OCC2CCCC2)cc1F (single isomer, unassigned) [Example 31, 2,2,2-trifluoroacetate] showed a pIC50 (read-out: hNaV1.7 EP_SP) of 6.41.
O=C(NS(=O)(=O)N1CCC(O[C@@H]2CCNC2)CC1)c1cc(Cl)c(OCC2CCCC2)cc1F (single isomer, unassigned) [Example 36, 2,2,2-trifluoroacetate] gave a pIC50 (read-out: hNaV1.7 EP_SP) of 6.70.
Work on O=C(NS(=O)(=O)N1CCC(O[C@H]2CCNC2)CC1)c1cc(Cl)c(OCC2CCCC2)cc1F (single isomer, unassigned) [Example 37, 2,2,2-trifluoroacetate] yielded a pIC50 (read-out: hNaV1.7 EP_SP) of 7.11.
For CN1CC[C@H](OC2CCN(S(=O)(=O)NC(=O)c3cc(Cl)c(OCC4CCCC4)cc3F)CC2)C1 (single isomer, unassigned) [Example 38], the pIC50 (read-out: hNaV1.7 EP_SP) was 7.41.
Work on O=C(NS(=O)(=O)N1CC[C@@H]2[C@@H](C1)OCC(=O)N2c1ccccc1)c1cc(Cl)c(OCC2CCCC2)cc1F (single isomer, unassigned) [Example 44] yielded a pIC50 (hNaV1.7 EP_SP) of 6.89.
O=C(NS(=O)(=O)N1CC(O[C@@H]2CCCNC2)C1)c1cc(Cl)c(OCC2CCCC2)cc1F (single isomer, unassigned) [Example 48] showed a pIC50 (read-out: hNaV1.7 EP_SP) of 6.07.
O=C(NS(=O)(=O)N1CC(O[C@@H]2CCCNC2)C1)c1cc(Cl)c(OCC2CCCC2)cc1F (single isomer, unassigned) [Example 49] was tested, and the pIC50 (read-out: hNaV1.7 EP_SP) was 6.07.
In the case of O=C(NS(=O)(=O)c1ccc(O[C@@H]2CCNC2)cc1)c1cc(Cl)c(OCC2CCCC2)cc1F (single isomer, unassigned) [Example 69], the pIC50 (read-out: hNaV1.7 EP_SP) was 6.89.
Compound O=S(=O)(Nc1noc2cc(OCC3CCCC3)c(Cl)cc12)N1CCC(O[C@H]2CCNC2)CC1 (single isomer, unassigned) [Example 90, 2,2,2-trifluoroacetate] has a pIC50 (read-out: hNaV1.7 EP_SP) of 6.40.
With O=S(=O)(Nc1noc2cc(OCC3CCCC3)c(C3CC3)cc12)N1CCC(O[C@@H]2CCNC2)CC1 (single isomer, unassigned) [Example 91, 2,2,2-trifluoroacetate] the pIC50 (read-out: hNaV1.7 EP_SP) was 6.10.
Compound O=S(=O)(Nc1noc2cc(OCC3CCCC3)c(C3CC3)cc12)N1CCC(O[C@H]2CCNC2)CC1 (single isomer, unassigned) [Example 92, 2,2,2-trifluoroacetate] has a pIC50 (read-out: hNaV1.7 EP_SP) of 7.16.
COc1cc(-c2cccc(C(F)(F)F)c2)c(F)cc1N1C(=O)CO[C@@H]2CN(S(=O)(=O)Nc3noc4ccc(C5CC5)cc34)CC[C@H]21 (single isomer, unassigned) [Example 93] gave a pIC50 (hNaV1.7 EP_SP) of 6.96.
Work on COc1cc(-c2cccc(C(F)(F)F)c2)c(F)cc1N1C(=O)CO[C@H]2CN(S(=O)(=O)Nc3noc4ccc(C5CC5)cc34)CC[C@@H]21 (single isomer, unassigned) [Example 94] yielded a pIC50 (hNaV1.7 EP_SP) of 6.62.
CN(C)C1CCCN(c2ccc(S(=O)(=O)NC(=O)c3cc(Cl)c(OCC4CCCC4)cc3F)cc2)C1 (single isomer, unassigned) [Example 209] was tested, and the pIC50 (read-out: hNaV1.7 EP_SP) was 6.96.
Work on O=C(NS(=O)(=O)N1CC[C@H](OC2CCNCC2)C1)c1cc(Cl)c(OCC2CCCC2)cc1F (single isomer, unassigned) [Example 212] yielded a pIC50 (read-out: hNaV1.7 EP_SP) of 7.06.
In the case of O=C(NS(=O)(=O)N1CC[C@@H](OC2CCNCC2)C1)c1cc(Cl)c(OCC2CCCC2)cc1F (single isomer, unassigned) [Example 213], the pIC50 (read-out: hNaV1.7 EP_SP) was 6.38.
N[C@]12C[C@H]1CN(S(=O)(=O)NC(=O)c1cc(Cl)c(OCC3CCCC3)cc1F)C2 (single isomer, unassigned) [Example 217, 2,2,2-trifluoroacetate] gave a pIC50 (read-out: hNaV1.7 EP_SP) of 6.43.
N[C@@]12C[C@@H]1CN(S(=O)(=O)NC(=O)c1cc(Cl)c(OCC3CCCC3)cc1F)C2 (single isomer, unassigned) [Example 218, 2,2,2-trifluoroacetate] was tested, and the pIC50 (read-out: hNaV1.7 EP_SP) was 6.25.
In the case of N[C@H]1CCCCN(S(=O)(=O)NC(=O)c2cc(Cl)c(OCC3CCCC3)cc2F)C1 (single isomer, unassigned) [Example 219, 2,2,2-trifluoroacetate], the pIC50 (read-out: hNaV1.7 EP_SP) was 6.19.
In the case of O=C(NS(=O)(=O)N1CC[C@@H]2CCC[C@H]21)c1cc(Cl)c(OCC2CCCC2)cc1F (single isomer, unassigned) [Example 220], the pIC50 (read-out: hNaV1.7 EP_SP) was 7.85.
O=C(NS(=O)(=O)N1CC[C@H]2CCC[C@@H]21)c1cc(Cl)c(OCC2CCCC2)cc1F (single isomer, unassigned) [Example 221] gave a pIC50 (read-out: hNaV1.7 EP_SP) of 7.80.
In the case of C[C@@H]1CCCN1S(=O)(=O)NC(=O)c1cc(Cl)c(OCC2CCCC2)cc1F (single isomer, unassigned) [Example 222], the pIC50 (read-out: hNaV1.7 EP_SP) was 7.48.
C[C@H]1CCCN1S(=O)(=O)NC(=O)c1cc(Cl)c(OCC2CCCC2)cc1F (single isomer, unassigned) [Example 223] gave a pIC50 (read-out: hNaV1.7 EP_SP) of 7.41.
In the case of C[C@H]1CCCCN1S(=O)(=O)NC(=O)c1cc(Cl)c(OCC2CCCC2)cc1F (single isomer, unassigned) [Example 224], the pIC50 (read-out: hNaV1.7 EP_SP) was 7.40.
Compound C[C@@H]1CCCCN1S(=O)(=O)NC(=O)c1cc(Cl)c(OCC2CCCC2)cc1F (single isomer, unassigned) [Example 225] has a pIC50 (read-out: hNaV1.7 EP_SP) of 8.00.
In the case of COC[C@H](C)S(=O)(=O)NC(=O)c1cc(Cl)c(OCC2CCCC2)cc1F (single isomer, unassigned) [Example 248], the pIC50 (read-out: hNaV1.7 EP_SP) was 6.12.
